Results taken from patent US20260242391A1 (priority 2023, published 2026).

How the values were obtained:
in vitro = conditions: human
HL-60 = HL-60 differentiation potency; type: cell-based; conditions: Homo sapiens

C[C@H]1[C@@H](OCCc2ccc(C(=O)O)cc2)O[C@@H]2O[C@@]3(C)CC[C@H]4[C@H](C)CC[C@@H]1[C@@]24OO3 [Compound 36, 4-(2-(((3R,5aS,6R,8aS, 9R,10S,12R, 12aR)-3,6,9-trimethyldeca-hydro-12H-3,12-epoxy[1,2]dioxepino[4,3-i]isochromen-10-yl)oxy)ethyl) benzoic acid]
IC50 (in vitro): > 20000 nM
EC50 (HL-60): 526 nM

C[C@H]1[C@@H](OC[C@H]2CC[C@@H](CO)CC2)O[C@@H]2O[C@@]3(C)CC[C@H]4[C@H](C)CC[C@@H]1[C@@]24OO3 [Compound 156, ((1R,4s)-4-((((3R,5aS,6R, 8aS,9R,10S,12R, 12aR)-3,6,9-trimethyldeca-hydro-12H-3,12-epoxy[1,2]dioxepino[4,3-i]isochromen-10-yl)oxy)methyl)cyclohexyl) methanol]
IC50 (in vitro): 270 nM
EC50 (HL-60): 76.6 nM

C[C@H]1[C@@H](OC[C@H]2CC[C@H](C(=O)O)CC2)O[C@@H]2O[C@@]3(C)CC[C@H]4[C@H](C)CC[C@@H]1[C@@]24OO3 [Compound 43, (1S,4r)-4-((((3R,5aS,6R, 8aS,9R,10S,12R, 12aR)-3,6,9-trimethyldeca-hydro-12H-3,12-epoxy[1,2]dioxepino[4,3-i]isochromen-10-yl)oxy)methyl) cyclohexane-1-carboxylic acid]
IC50 (in vitro): > 20000 nM
EC50 (HL-60): 892 nM

C[C@H]1[C@@H](Oc2cccc(CC(=O)O)c2)O[C@@H]2O[C@@]3(C)CC[C@H]4[C@H](C)CC[C@@H]1[C@@]24OO3 [Compound 20, 2-(3-(((3R,5aS,6R, 8aS,9R,10S,12R, 12aR)-3,6,9-trimethyldeca-hydro-12H-3,12-epoxy[1,2]dioxepino[4,3-i]isochromen-10-yl)oxy)phenyl) acetic acid]
IC50 (in vitro): 8330 nM
EC50 (HL-60): 116 nM

C[C@H]1[C@@H](OC[C@@H]2CCC[C@H](C(=O)O)C2)O[C@@H]2O[C@@]3(C)CC[C@H]4[C@H](C)CC[C@@H]1[C@@]24OO3 [Compound 138, (1S,3R)-3-((((3R,5aS,6R, 8aS,9R,10S,12R, 12aR)-3,6,9-trimethyldeca-hydro-12H-3,12-epoxy[1,2]dioxepino[4,3-i]isochromen-10-yl)oxy)methyl) cyclohexane-1-carboxylic acid]
IC50 (in vitro): > 20000 nM
EC50 (HL-60): 120 nM

Cc1cc(CN[C@@H]2O[C@@H]3O[C@@]4(C)CC[C@H]5[C@H](C)CC[C@@H]([C@H]2C)[C@@]35OO4)cc(C)n1 [Compound 37, (3R,5aS,6R,8aS, 9R,10R,12R, 12aR)-N-((2,6-dimethylpyridin-4-yl)methyl)-3,6,9-trimethyldeca-hydro-12H-3,12-epoxy[1,2] dioxepino[4,3-i] isochromen-10-amine]
IC50 (in vitro): 590 nM
EC50 (HL-60): 555 nM

C[C@H]1[C@@H](OCCCc2ccc(C(=O)O)cc2)O[C@@H]2O[C@@]3(C)CC[C@H]4[C@H](C)CC[C@@H]1[C@@]24OO3 [Compound 10, 4-(3-(((3R,5aS,6R, 8aS,9R,10S,12R, 12aR)-3,6,9-trimethyldeca-hydro-12H-3,12-epoxy[1,2]dioxepino[4,3-i]isochromen-10-yl)oxy)propyl) benzoic acid]
IC50 (in vitro): > 10000 nM
EC50 (HL-60): 63.8 nM

C[C@H]1[C@H](NCc2ccccc2)O[C@@H]2O[C@@]3(C)CC[C@H]4[C@H](C)CC[C@@H]1[C@@]24OO3 [Compound 101, (3R,5aS,6R,8aS, 9R,10R,12R, 12aR)-N-benzyl-3,6,9-trimethyldeca-hydro-12H-3,12-epoxy[1,2] dioxepino[4,3-i] isochromen-10-amine]
IC50 (in vitro): 1320 nM
EC50 (HL-60): 835 nM

C[C@H]1[C@H](OCC(=O)N2CCC(C(=O)O)CC2)O[C@@H]2O[C@@]3(C)CC[C@H]4[C@H](C)CC[C@@H]1[C@@]24OO3 [Compound 164, 1-(2-(((3R,5aS,6R,8aS, 9R,10R,12R, 12aR)-3,6,9-trimethyldeca-hydro-12H-3,12-epoxy[1,2]dioxepino[4,3-i]isochromen-10-yl)oxy)acetyl) piperidine-4-carboxylic acid]
IC50 (in vitro): > 20000 nM
EC50 (HL-60): > 20000 nM

C[C@H]1[C@@H](Oc2ccc(CC(=O)O)c(F)c2F)O[C@@H]2O[C@@]3(C)CC[C@H]4[C@H](C)CC[C@@H]1[C@@]24OO3 [Compound 23, 2-(2,3-difluoro-4-(((3R,5aS,6R,8aS, 9R,10S,12R, 12aR)-3,6,9-trimethyldeca-hydro-12H-3,12-epoxy[1,2]dioxepino[4,3-i]isochromen-10-yl)oxy)phenyl) acetic acid]
IC50 (in vitro): 15000 nM
EC50 (HL-60): 192 nM

C[C@H]1[C@@H](OC[C@H]2CC[C@@H](C(=O)O)CC2)O[C@@H]2O[C@@]3(C)CC[C@H]4[C@H](C)CC[C@@H]1[C@@]24OO3 [Compound 11, (1R,4s)-4-((((3R,5aS,6R,8aS, 9R,10S,12R, 12aR)-3,6,9-trimethyldeca-hydro-12H-3,12-epoxy[1,2]dioxepino[4,3-i]isochromen-10-yl)oxy)methyl) cyclohexane-1-carboxylic acid]
IC50 (in vitro): > 20000 nM
EC50 (HL-60): 87.4 nM

C[C@H]1[C@@H](OCC(=O)N2C[C@H](F)C[C@H]2C(=O)O)O[C@@H]2O[C@@]3(C)CC[C@H]4[C@H](C)CC[C@@H]1[C@@]24OO3 [Compound 150, (2S,4R)-4-fluoro-1-(2-(((3R,5aS,6R,8aS, 9R,10S,12R, 12aR)-3,6,9-trimethyldeca-hydro-12H-3,12-epoxy[1,2]dioxepino[4,3-i]isochromen-10-yl)oxy)acetyl) pyrrolidine-2-carboxylic acid]
IC50 (in vitro): > 20000 nM
EC50 (HL-60): > 20000 nM

C[C@H]1[C@H](OCC#Cc2ccc(C(=O)O)cc2F)O[C@@H]2O[C@@]3(C)CC[C@H]4[C@H](C)CC[C@@H]1[C@@]24OO3 [Compound 166, 3-fluoro-4-(3-(((3R,5aS,6R,8aS, 9R,10R,12R, 12aR)-3,6,9-trimethyldeca-hydro-12H-3,12-epoxy[1,2]dioxepino[4,3-i]isochromen-10-yl)oxy)prop-1-yn-1-yl)benzoic acid]
IC50 (in vitro): 1800 nM
EC50 (HL-60): 66.9 nM

C[C@H]1[C@@H](OCc2ccc(C(=O)O)c(F)c2)O[C@@H]2O[C@@]3(C)CC[C@H]4[C@H](C)CC[C@@H]1[C@@]24OO3 [Compound 24, 2-fluoro-4-((((3R,5aS,6R,8aS, 9R,10S,12R, 12aR)-3,6,9-trimethyldeca-hydro-12H-3,12-epoxy[1,2]dioxepino[4,3-i]isochromen-10-yl)oxy)methyl) benzoic acid]
IC50 (in vitro): > 20000 nM
EC50 (HL-60): 210 nM

C[C@H]1[C@@H](OCc2cccc(CC(=O)O)c2)O[C@@H]2O[C@@]3(C)CC[C@H]4[C@H](C)CC[C@@H]1[C@@]24OO3 [Compound 34, 2-(3-((((3R,5aS,6R, 8aS,9R,10S,12R, 12aR)-3,6,9-trimethyldeca-hydro-12H-3,12-epoxy[1,2]dioxepino[4,3-i]isochromen-10-yl)oxy)methyl)phenyl)acetic acid]
IC50 (in vitro): > 20000 nM
EC50 (HL-60): 480 nM

C[C@H]1[C@@H](OCc2ccc(S(N)(=O)=O)cc2)O[C@@H]2O[C@@]3(C)CC[C@H]4[C@H](C)CC[C@@H]1[C@@]24OO3 [Compound 18, 4-((((3R,5aS,6R, 8aS,9R,10S,12R, 12aR)-3,6,9-trimethyldeca-hydro-12H-3,12-epoxy[1,2]dioxepino[4,3-i]isochromen-10-yl)oxy)methyl) benzene-sulfonamide]
IC50 (in vitro): 2250 nM
EC50 (HL-60): 99 nM

C[C@H]1[C@@H](OCc2cc(C(=O)O)cc(C(=O)O)c2)O[C@@H]2O[C@@]3(C)CC[C@H]4[C@H](C)CC[C@@H]1[C@@]24OO3 [Compound 141, 5-((((3R,5aS,6R,8aS, 9R,10S,12R, 12aR)-3,6,9-trimethyldeca-hydro-12H-3,12-epoxy[1,2]dioxepino[4,3-i]isochromen-10-yl)oxy)methyl) isophthalic acid]
IC50 (in vitro): > 20000 nM
EC50 (HL-60): > 20000 nM

C[C@H]1[C@H](OCc2cccc(C(=O)O)c2)O[C@@H]2O[C@@]3(C)CC[C@H]4[C@H](C)CC[C@@H]1[C@@]24OO3 [Compound 91, 3-((((3R,5aS,6R,8aS, 9R,10R,12R, 12aR)-3,6,9-trimethyldeca-hydro-12H-3,12-epoxy[1,2]dioxepino[4,3-i]isochromen-10-yl)oxy)methyl) benzoic acid]
IC50 (in vitro): > 20000 nM
EC50 (HL-60): 17500 nM

C[C@H]1[C@@H](OCc2ccc(C(=O)O)c(Cl)c2)O[C@@H]2O[C@@]3(C)CC[C@H]4[C@H](C)CC[C@@H]1[C@@]24OO3 [Compound 33, 2-chloro-4-((((3R,5aS,6R, 8aS,9R,10S,12R, 12aR)-3,6,9-trimethyldeca-hydro-12H-3,12-epoxy[1,2]dioxepino[4,3-i]isochromen-10-yl)oxy)methyl) benzoic acid]
IC50 (in vitro): > 20000 nM
EC50 (HL-60): 343 nM

C[C@H]1[C@@H](OCc2ccnc(C(=O)O)c2)O[C@@H]2O[C@@]3(C)CC[C@H]4[C@H](C)CC[C@@H]1[C@@]24OO3 [Compound 15, 4-((((3R,5aS,6R, 8aS,9R,10S,12R, 12aR)-3,6,9-trimethyldeca-hydro-12H-3,12-epoxy[1,2]dioxepino[4,3-i]isochromen-10-yl)oxy)methyl) picolinic acid]
IC50 (in vitro): 2550 nM
EC50 (HL-60): 93.1 nM

C[C@H]1[C@@H](OCC(=O)N2C[C@@H](O)C[C@H]2C(=O)O)O[C@@H]2O[C@@]3(C)CC[C@H]4[C@H](C)CC[C@@H]1[C@@]24OO3 [Compound 160, (2S,4S)-4-hydroxy-1-(2-(((3R,5aS,6R,8aS, 9R,10S,12R, 12aR)-3,6,9-trimethyldeca-hydro-12H-3,12-epoxy[1,2]dioxepino[4,3-i]isochromen-10-yl)oxy)acetyl) pyrrolidine-2-carboxylic acid]
IC50 (in vitro): > 20000 nM
EC50 (HL-60): > 20000 nM

C[C@H]1[C@H](NCc2ccncc2)O[C@@H]2O[C@@]3(C)CC[C@H]4[C@H](C)CC[C@@H]1[C@@]24OO3 [Compound 98, (3R,5aS,6R,8aS, 9R,10R,12R, 12aR)-3,6,9-trimethyl-N-(pyridin-4-ylmethyl)deca-hydro-12H-3,12-epoxy[1,2] dioxepino[4,3-i] isochromen-10-amine]
IC50 (in vitro): > 20000 nM
EC50 (HL-60): > 20000 nM

CCN(CC)Cc1ccc(C(C)O[C@@H]2O[C@@H]3O[C@@]4(C)CC[C@H]5[C@H](C)CC[C@@H]([C@H]2C)[C@@]35OO4)cc1O (stereo partly drawn) [Compound 47, 2-((diethylamino)methyl)-5-(1-(((3R,5aS,6R,8aS, 9R,10R,12R, 12aR)-3,6,9-trimethyldeca-hydro-12H-3,12-epoxy[1,2]dioxepino[4,3-i]isochromen-10-yl)oxy)ethyl) phenol]
IC50 (in vitro): 4050 nM
EC50 (HL-60): 1710 nM
